Measured values from patent US11951085B2, “Methods of treating injuries or conditions related to CNS edema” (BIOGEN CHESAPEAKE LLC, priority 2015, dated 2024).

How the values were obtained:
Format in all cases: in vivo, human
[1] = test system: subjects with Large Hemispheric Infarction (brain lesions of 82 cc to 300 cc); assay: Randomized double blind placebo controlled study in Large Hemispheric Infarction: clinical outcomes (mortality, mRS, Barthel Index, EQ-5D); design: median mRS / EQ-5D Median Difference: scale not given here; details: for Difference in 90 Day Score of mRS 0-4: Test Drug Group versus Placebo Group
Procedure: (§1) In order to determine the efficacy of SUR1-TRPM4 channel inhibitors for reducing or treating neurological conditions associated with cell swelling and CNS or cerebral edema, a randomized double blind placebo controlled clinical study was conducted. […] Within the “per protocol” group, 77 patients who were confirmed centrally to have brain lesions from 82 cc to 300 cc. Forty one of subjects were administered the test drug and 36 subjects were administered the placebo. The administration of the test drug was as follows: a bolus of 0.13 mg of the SUR1-TRPM4 channel inhibitor was administered over approximately 2 minutes followed by a continuous infusion of 0.16 mg/hr for 6 hours, and then a continuous infusion of 0.11 mg/hr for 66 hours, for a total dosing period of 72 hours. The total daily dose of Study Drug on Day 1, Day 2 and Day 3 was 3.12 mg, 2.67 mg, and 2.67 mg, respectively.
The incidence of mortality in the individuals was recorded at both 30 and 90 days following treatment. The Reduction in Mortality as a result of administration of the SUR1-TRPM4 channel inhibitor is shown in Table 2 below, and graphed in FIG. 1.
Additional mortality data was collected as it related to drug and placebo treatment with and without a Decompressive Craniectomy (DC). Essentially, the incidence of mortality was recorded for study participants that passed away following a DC prior to the end of the study period. The incidence of mortality when a DC occurred compared to no DC is shown in Table 3 below, and graphed in FIG. 2.
The subjects in this study were also tested using the modified Rankin Scale (mRS). One way to assess outcome in large strokes, such as those studied, is to determine the percentage of patients in each group who have a mRS of 0-4 at 90 days after stroke. The results of the 90 day mRS study is shown in Table 4 below, and graphed in FIG. 3.
The Barthel Index is another functional outcome that can be used to assess outcome of stroke patients. The subjects of the study were also scored using the Barthel index both initially and again at about 90 days. The degree of improvement in the Barthel index scores are shown in Table 5 below and graphed in FIG. 4.
Mortality can be multifactorial and may depend on factors such as preexisting comorbidities and risk factors. […] Specifically, cause of death was adjudicated by three adjudicators blinded to study drug group. Imaging and clinical data were used to determine, among other outcomes, cause of death. […] Consistent with our proposed mechanism of action, mortality attributable to edema was the driver behind reductions in overall mortality.
The magnitude of difference between placebo and treatment arms on the mRS as an ordinal scale is frequently measured using the Mann-Whitney test and a common odds ratio (OR) may be derived using the proportional odds methodology to explore effect size. In accordance with this, a common OR of 1.2 represents a clinically meaningful difference. The OR for effect size in patients ≤70 in the per-protocol population was 2.49, which represents a substantial clinical effect.
The Barthel Index (BI) is a measure of activities of daily living. It has been widely used and accepted in stroke trials and is one of the more prevalent scales used in acute stroke. In one example, a minimum clinically important change that is beyond measurement error is about 20 points on the 100-point scale, which was used as a benchmark in this study. The median delta or differences seen in the ≤70 per-protocol population at 90 days, 6 months, and 12 months between drug and placebo were 35, 27.5, and 45, respectively, all exceeding the accepted threshold. A common interpretation of the BI considers a score of ≤40 to be a clearly bad outcome, whereas a score of ≥60 is a clearly good outcome.
The EuroQol-5D (EQ-5D) is a generic instrument used to assess quality of life in a variety of conditions, including stroke. […]

MMP-9 = assay: Large Hemispheric Infarction study: MMP-9 values in blood samples; details: blood samples at 24 hours and at 72 hours, averaged
Procedure: as §1
Additionally, MMP-9 values based in blood samples were taken at 24 hours and at 72 hours for the study participants and then averaged. MMP-9 levels are known to rise after stroke and are believed to represent blood brain barrier dysfunction. The MMP-9 average values are shown in Table 8 below, and graphed in FIG. 7.

[2] = Large Hemispheric Infarction study: blood glucose monitoring; details: one patient, receiving 10 wt % dextrose solution; infusion rate reduced by 30% and glucose stabilized
Procedure: as §1
a) During the Double Blind Placebo Controlled Study, there was a lab confirmed blood glucose level that dropped to 51 mg/dL which was recorded for one of the patients who was receiving a 10 wt % dextrose solution.

[3] = test system: subjects with TBI having lesional blood (contusion); assay: Randomized double blind placebo controlled study in Traumatic Brain Injury (MRI edema, GOSE)
Procedure: The administration of the test drug was as follows: a bolus of 0.13 mg of the SUR1-TRPM4 channel inhibitor was administered over approximately 2 minutes followed by a continuous infusion of 0.16 mg/hr for 6 hours, and then a continuous infusion of 0.11 mg/hr for 66 hours, for a total dosing period of 72 hours. The total daily dose of Study Drug on Day 1, Day 2 and Day 3 was 3.12 mg, 2.67 mg, and 2.67 mg, respectively. All subjects were assessed by MRI scans at baseline and 72 hours.
The 14 subjects (7 drug and 7 placebo) identified as having evidence of lesional blood (i.e., blood associated with a contusion) at baseline and having MRI scans at both baseline and 72 hours were assessed for edema using MIM software version 5.6. Blinded readers ascertained x, y, z measurements of the total apparent contusion using T2 images, unless missing, in which case, DTI images were used. Only contusions that could be reliably measured (measuring at least about 1 cc) were measured. Readers also ascertained the volume measurements of hemorrhages in a similar manner using SWI images. Linear measurements were captured in centimeters (cm) and all volumes in cubic centimeters (cc). Volumes were calculated using the ABC/2 standard. The volume of apparent edema was calculated as the difference between the overall apparent contusion volume and the volume of the hemorrhage. For analysis, if there were multiple lesions, the volumes of all lesions meeting the threshold were combined.

[4] = Full per-protocol population, 6 Months
[5] = Full per-protocol population, 12 Months
[6] = PP ≤ 9 hr (drug in 9 hours or less), N 33 (14/19)
[7] = patients ≤70, per-protocol population
[8] = ≤70 per-protocol population, 6 Months
[9] = ≤70 per-protocol population, 12 Months
[10] = ≤70 per-protocol population, Day 90

COc1ccc(Cl)cc1C(=O)NCCc1ccc(S(=O)(=O)NC(=O)NC2CCCCC2)cc1 [glyburide]
% Death 30 days ([1]; 41 individuals, per protocol): 14.6% | % Death 90 days ([1]; 41 individuals, per protocol): 17.1% | EQ-5D Median Difference [1, 4]: 0.34 | Survival OR [1, 4]: 2.63 | mRS OR [1, 4]: 1.88 | EQ-5D Median Difference [1, 5]: 0.14 | Survival OR [1, 5]: 2.54 | mRS OR [1, 5]: 1.64 | EQ-5D Median Difference ([1]; Full per-protocol population, 90 Days, drug vs placebo): 0.30 | Survival OR ([1]; Full per-protocol population, Day 90): 2.74 | mRS OR ([1]; Full per-protocol population, Day 90, ordinal): 1.91 | Mortality OR ([1]; PP population, N 77 (36/41), logistic regression): 2.75 | mRS 0-6 OR ([1]; PP population, N 77 (36/41), ordinal logistic regression): 1.91 | Mortality OR [1, 6]: 2.96 | mRS 0-6 OR [1, 6]: 2.31 | Difference in 90 Day Score of mRS 0-4 [1]: 14.6% | Difference in 90 Day Score of mRS 0-4 ([1]; listed as Test Drug): +14.6% | "zero effect" lesion size ([1]; by extrapolation, mRS shift OR of 1): about 100 cc | EQ-5D median difference between drug and placebo ([1]; full and ≤70 per-protocol populations, all time points): greater than 0.12 | Mortality with DC ([1]; number of deaths among 13 individuals receiving decompressive craniectomy): 2 | Mortality without DC ([1]; number of deaths among 28 individuals with no decompressive craniectomy): 5 | Mortality 90 days (includes 30 day values) ([1]; number of deaths among 41 individuals, per protocol): 7 | Mortality 30 days ([1]; number of deaths among 41 individuals, per protocol, 30 days following treatment): 6 | effect size at the mRS 0-3 dichotomization [1, 7]: 14% | effect size at the mRS 0-4 dichotomization [1, 7]: 22% | Adjudicated mortality due to edema ([1]; per-protocol group (1/41), placebo 22.22% (8/36), p=0.01): 2.44% | 90 Day Score of mRS 0-4 ([1]; percentage of patients with mRS 0-4 at 90 days after stroke): 61.4% | median mRS ([1]; treated group, median of 5 in the placebo): 4 | EQ-5D Median Difference [1, 8]: 0.29 | Survival OR [1, 8]: 3.47 | mRS OR [1, 8]: 2.33 | EQ-5D Median Difference [1, 9]: 0.30 | Survival OR [1, 9]: 4.00 | mRS OR [1, 9]: 2.24 | EQ-5D Median Difference ([1]; ≤70 per-protocol population, 90 Days): 0.29 | Survival OR [1, 10]: 3.88 | mRS OR [1, 10]: 2.49 | MMP-9 Average (MMP-9): 193.18 ng/mL | lab confirmed blood glucose level [2]: 51 mg/dL | evolution (growth) of edema from baseline to 72 hours ([3]; 7 drug subjects with lesional blood, MRI volume, placebo 10.28-fold): 2.14 fold | mean Glasgow Coma Scale Extended score (GOSE) ([3]; at 180 days, placebo 6.17): 6 | drug-related effects in non-lesioned subjects or areas of the brain without a lesion ([3]; in vivo): No drug-related effects were detected
